The results in this text go back to patent US11224601B1, “Compounds that inhibits MCL-1 protein” (priority 2017, dated 2022).

Experiment [1] concerns OPM-2 human multiple myeloma cell line. Description: Cell Viability Assay (OPM-2 10 FBS), CellTiter-Glo. The experiment is classed as cell-based. In outline:
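OPM-2 myeloma cells seeded at 3000 cells/well in RPMI 1640 with 10% FBS and exposed to serially diluted compounds for 16 h at 37° C., 5% CO2.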
A general note: Cellular ATP, detected with luciferase, serves as a proxy for viable cell number.

Experiment [2] has as its system OPM-2 Luc cells. Description: OPM-2 xenograft efficacy model. The experiment is classed as in vivo. Particulars: dosed orally to female athymic nude mice inoculated with OPM-2 Luc cells.
Experiment [3] addresses recombinant human Mcl-1 (Mcl-1/Bim interaction) (Homo sapiens (Human), UniProt Q07820). Description: biochemical. The experiment is classed as binding. The following applies: cell free Mcl-1:Bim TR-FRET; read-out: Mcl-1 HTRF IC50. For orientation: TR-FRET usually uses a lanthanide donor and a delayed reading to cut background.
Experiment [4] deals with OPM-2 Luc cells. Briefly: Tumor Pharmacodynamics (PD) model. Format: in vivo. Particulars: dosed orally to female athymic nude mice inoculated with OPM-2 Luc cells; compared with Reference Compound 1. From the text:
Tumor Pharmacodynamics (PD)
FIGS. 1-7 illustrate the PD results of the cited Examples. The Reference Compound 1, an internal Amgen MC1-1 inhibitor compound made by one of the general schemes outlined in U.S. Pat. No. 9,562,061, herein incorporated by reference, is (1S,3′R,6′R,7′S,8′E,12′R)-6-chloro-12′-ethyl-7′-methoxy-3,4-dihydro-2H,15′H-spiro[naphthalene-1,22′-[20]oxa[13]thia[1,14]diazatetracyclo[14.7.2.0˜3,6˜.0˜19,24˜]pentacosa[8,16,18,24]tetraen]-15′-one 13′,13′-dioxide

Where [5] appears, read: Homo sapiens, OPM-2, 16 h, read-out: OPM-2 10% FBS IC50 IP (μM), OPM-2 cells, 10% FBS, 16 h, CellTiter-Glo.

Where two headings read alike, the source gives them in different places.

In general, IC50 refers to the point on the concentration scale where inhibition reaches its midpoint.

recombinant human Mcl-1 (Mcl-1/Bim interaction), sequence (Q07820 171-327): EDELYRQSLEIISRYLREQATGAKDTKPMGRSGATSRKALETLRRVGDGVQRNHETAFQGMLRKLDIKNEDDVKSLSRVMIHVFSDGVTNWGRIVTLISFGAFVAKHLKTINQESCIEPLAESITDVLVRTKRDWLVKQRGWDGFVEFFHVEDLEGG

With “(1S,3′R,6′R,7′R,8′E,11′S,12′R)-6-chloro-7′-((9aS)-hexahydropyrazino[2,1-c][1,4]oxazin-8(1H)-ylmethyl)-7′-methoxy-12′-(2-methoxyethyl)-11′-methyl-3,4-dihydro-2H,15′H-spiro[naphthalene-1,22′-[20]oxa[13]thia[1,14]diazatetracyclo[14.7.2.0˜3,6˜.0˜19,24˜]pentacosa[8,16,18,24]tetraen]-15′-one 13,13′-dioxide [Example 11]”, in experiment [1] (read-out: OPM-2 10% FBS IC50 IP, OPM-2 cells, 10% FBS, 16 h, CellTiter-Glo), the IC50 was found to be 0.051 µM. Besides, in experiment [2], the “in vivo efficacy in an OPM-2 xenograft efficacy model” value is reported as “in vivo efficacy”.
With `CCO[C@]1(CN2CCN3CCOC[C@@H]3C2)/C=C/C[C@H](C)[C@@H](CCOC)S(=O)(=O)NC(=O)c2ccc3c(c2)N(C[C@@H]2CC[C@H]21)C[C@@]1(CCCc2cc(Cl)ccc21)CO3` [Example 13, (1S,3′R,6′R,7′R,8′E,11′S,12′R)-6-chloro-7′-ethoxy-7′-((9aS)-hexahydropyrazino[2,1-c][1,4]oxazin-8(1H)-ylmethyl)-12′-(2-methoxyethyl)-11′-methyl-3,4-dihydro-2H,15′H-spiro[naphthalene-1,22′-[20]oxa[13]thia[1,14]diazatetracyclo[14.7.2.0˜3,6˜.0˜19,24˜]pentacosa[8,16,18,24]tetraen]-15′-one 13′,13′-dioxide], in experiment [3], the IC50 worked out at 0.094 nM. Besides, the “in vivo efficacy in a tumor PD model relative to Reference Compound 1” value in experiment [4] was “superior in vivo efficacy”. Also, the “in vivo efficacy in an OPM-2 xenograft efficacy model” value in experiment [2] is “in vivo efficacy”.
Consider `CCO[C@]1(CN2CCN(C3COC3)CC2)/C=C/C[C@H](C)[C@@H](C)S(=O)(=O)NC(=O)c2ccc3c(c2)N(C[C@@H]2CC[C@H]21)C[C@@]1(CCCc2cc(Cl)ccc21)CO3` [Example 2, (1S,3′R,6′R,7′R,8′E,11′S,12′R)-6-chloro-7′-ethoxy-11′,12′-dimethyl-7′-((4-(3-oxetanyl)-1-piperazinyl)methyl)-3,4-dihydro-2H,15′H-spiro[naphthalene-1,22′-[20]oxa[13]thia[1,14]diazatetracyclo[14.7.2.0˜3,6˜.0˜19,24˜]pentacosa[8,16,18,24]tetraen]-15′-one 13′,13′-dioxide], for which the IC50 in experiment [3] worked out at 0.109 nM. Further, the “in vivo efficacy in a tumor PD model relative to Reference Compound 1” value in experiment [4] is “superior in vivo efficacy”.
For the compound `CO[C@@]1(CN2CCN3CCOC[C@@H]3C2)/C=C/C[C@H](C)[C@@H](C)S(=O)(=O)NC(=O)c2ccc3c(n2)N(C[C@@H]2CC[C@H]21)C[C@@]1(CCCc2cc(Cl)ccc21)CO3` [Example 18, (1S,3′R,6′R,7′S,8′E,11′S,12′R)-6-chloro-7′-((9aS)-hexahydropyrazino[2,1-c][1,4]oxazin-8(1H)-ylmethyl)-7′-methoxy-11′,12′-dimethyl-3,4-dihydro-2H,15′H-spiro[naphthalene-1,22′-[20]oxa[13]thia[1,14,25]triazatetracyclo[14.7.2.0˜3,6˜.0˜19,24˜]pentacosa[8,16,18,24]tetraen]-15′-one 13′,13′-dioxide], the IC50 in experiment [3] came to 0.06 nM; in experiment [1] (setting [5]), 0.022 µM. The “in vivo efficacy in a tumor PD model relative to Reference Compound 1” value in experiment [4] is reported as “superior in vivo efficacy”. Besides, the “in vivo efficacy in an OPM-2 xenograft efficacy model” value in experiment [2] is on record as “in vivo efficacy”.
For `CCO[C@]1(CN2CCN(C3COC3)CC2)/C=C/C[C@H](C)[C@@H](CCOC)S(=O)(=O)NC(=O)c2ccc3c(c2)N(C[C@@H]2CC[C@H]21)C[C@@]1(CCCc2cc(Cl)ccc21)CO3` [Example 14, (1S,3′R,6′R,7′R,8′E,11′S,12′R)-6-chloro-7′-ethoxy-12′-(2-methoxyethyl)-11′-methyl-7′-((4-(3-oxetanyl)-1-piperazinyl)methyl)-3,4-dihydro-2H,15′H-spiro[naphthalene-1,22′-[20]oxa[13]thia[1,14]diazatetracyclo[14.7.2.0˜3,6˜.0˜19,24˜]pentacosa[8,16,18,24]tetraen]-15′-one 13′,13′-dioxide], in experiment [3], the half-maximal inhibitory concentration (IC50) turned out to be 0.08 nM. For the same compound, the “in vivo efficacy in a tumor PD model relative to Reference Compound 1” value in experiment [4] is listed as “superior in vivo efficacy”.
Turning to `CO[C@]1(CN2CCN(C3COC3)CC2)/C=C/C[C@H](C)[C@@H](C)S(=O)(=O)NC(=O)c2ccc3c(c2)N(C[C@@H]2CC[C@H]21)C[C@@]1(CCCc2cc(Cl)ccc21)CO3` [Example 3, (1S,3′R,6′R,7′R,8′E,11′S,12′R)-6-chloro-7′-methoxy-11′,12′-dimethyl-7′-((4-(3-oxetanyl)-1-piperazinyl)methyl)-3,4-dihydro-2H,15′H-spiro[naphthalene-1,22′-[20]oxa[13]thia[1,14]diazatetracyclo[14.7.2.0˜3,6˜.0˜19,24˜]pentacosa[8,16,18,24]tetraen]-15′-one 13′,13′-dioxide], the IC50 in experiment [1] (setting [5]) was found to be 0.06 µM. Moreover, the “in vivo efficacy in a tumor PD model relative to Reference Compound 1” value in experiment [4] is “superior in vivo efficacy”.
